Assay results from article PMC9411558, “Toxicity mechanisms of aflatoxin M1 assisted with molecular docking and the toxicity-limiting role of trans-resveratrol” (Scientific Reports, 2022).
Values joined by “and” are separate entries in the source; they are usually repeats but may differ in a detail not shown here. Equal entries are not always repeated. Where two headings read alike, the source gives them in different places. Marks after values point to notes of the source that are not given here.

Experiments:
leukocyte cell nuclei = type: in vivo, swiss albino mice
Method: The protocol of Tice et al.[19] was performed for alkaline single cell gel electrophoresis with slight modifications. Slides were dipped in 1% normal melting point agarose for coating and allowed to dry at 37 °C. 10 µL of peripheral blood were added to 120 µL of 0.5% low-melting-point agarose at 37 °C, layered onto a coated slide, covered with a coverslip and left at 4 °C for 5 min. to solidify the agarose. The coverslip was removed and the slides were immersed into a lysis solution (2.5 M NaCl, 100 mm Na2EDTA, 10 mM Tris–HCl buffer, pH 10, 1% Triton X-100) for approximately 1 h. After lysis, the slides were transferred to a horizontal gel electrophoresis tank with a fresh and cooled alkaline buffer. After a 20 min. DNA unwinding period, electrophoresed at 0.86 V/cm (20 V, 300 mA) for 20 min. […] To prevent DNA damage, all steps were performed in low light and analyzed by fluorescence microscopy. Comets were analyzed with Comet Assay software version 1.2.3b[20] with the parameters of tail DNA length. A total of 600 cells were analyzed for each group, 100 in each animal for DNA damage. The extent of DNA damage was scored from 0 to 4 depending upon the level of DNA damage. […] The total DNA damage per group, expressed as arbitrary units, was calculated using Eq. (2).2 Arbitraryunit=∑i=04Nixi (i: degree of damage (0, 1, 2, 3, 4), Ni: the number of cells in i degree).

liver and kidney tissues = experiment: Antioxidant/oxidant balance: MDA and GSH levels in kidney and liver; type: in vivo, Mus musculus
Method: To determine the effects of AFM1 and t-rsv on antioxidant/oxidant balance, malondialdehyde and glutathione levels were measured in the kidney and liver. For this purpose, liver and kidney organs were isolated from each mouse sacrificed under halothane anesthesia and washed with a sterile solution. Liver and kidney organs were homogenized with cold 0.15 M KCl solution. Homogenates were centrifuged at 5000g and 4 °C for 1 h and MDA and GSH analyzes were performed in the supernatant.

[1] = type: in vivo, Mus musculus
Method: In this study, 36 healthy male Mus musculus (12–14 weeks old, 25–30 g) were used as subjects and obtained from GRU-Experimental Animals Laboratory. Albino mice were maintained in stainless steel cages, at 22 ± 3 °C and 55 ± 5% relative humidity, 12 h light/12 h dark cycle. All experiments were performed in accordance with the guidelines of the Animal Experiments Local Ethics Committee of Giresun University and approved by the Animal Ethics Committee of Giresun University (protocol number: 2017/02). This study was carried out in compliance with the ARRIVE guidelines. Six groups were formed with six mice in each group.
After the mice were stunned under halothane anesthesia, their body weights were measured before the administration period and at the end of the 28-day administration period. In addition, at the end of the 28th day, the liver and kidney organs of the sacrificed mice were isolated and their weights were measured.

[2] = Serum parameters (AST, ALT, BUN, creatinine); type: in vivo, Mus musculus
Method: Whole blood samples from mice stunned under halothane anesthesia were collected in vacuum tubes and centrifuged at 1200g at + 4 °C for 10 min. In serum obtained from blood, aspartate aminotransferase (AST, Teco Diagnostics, CAT. NO: A559–150), alanine aminotransferase (ALT, Teco Diagnostics, CAT. NO: A524–150), blood urea nitrogen (BUN, Teco Diagnostics, CAT. NO: B549–150) and creatinine (Teco Diagnostics) levels were measured on a Medispec 99M autoanalyzer using a commercial kit[16].

bone marrow cells [3] = type: in vivo, Mus musculus
Method: (§1) The genotoxic effects of AFM1 and the genotoxicity reducing effects of t-rsv were determined by MN and CAs analyses. MN test was performed in erythrocyte, buccal mucosa epithelium and leukocyte cells. CAs analyzes were investigated in bone marrow cells. The cytotoxic effects of AFM1 and the cytotoxicity reducing effects of t-rsv were determined by MI in bone marrow cells.
CAs and MI analysis were determined in the bone marrow. For this aim, mice treated with 0.025% colchicine were sacrificed 2 h later under halothane anesthesia. Bone marrow obtained from the femurs of mice was aspirated, washed with the physiological solution and 0.075 M KCl was transferred. After fixation with Carnoy's solution, samples stained with Giemsa (5%) were examined under a microscope. […] In prepared slides, MI was determined as the percentage of dividing cells among 1000 nucleated cells for each group. Recovery effects (RE) of t-rsv against AFM1 induced genotoxicity were calculated by using Eq. (1). In determining RE, data belonging to Group VI, where t-rsv provided the highest healing effect, Group IV, in which AFM1 was treated alone, and the control group were used.1 RE%=D1-D2/D3-D2×100 D1: data of AFM1 + t-rsv treated group, D2: Data of AFM1 treated group, D3: data of control.

bone marrow cells [4] = type: in vivo, Mus musculus; remark: listed apart in the source
Method: as §1
CAs and MI analysis were determined in the bone marrow. For this aim, mice treated with 0.025% colchicine were sacrificed 2 h later under halothane anesthesia. Bone marrow obtained from the femurs of mice was aspirated, washed with the physiological solution and 0.075 M KCl was transferred. After fixation with Carnoy's solution, samples stained with Giemsa (5%) were examined under a microscope. MI rates and CAs frequencies were determined in the prepared slides and 1.000 cells were analyzed for each group. In prepared slides, MI was determined as the percentage of dividing cells among 1000 nucleated cells for each group. Recovery effects (RE) of t-rsv against AFM1 induced genotoxicity were calculated by using Eq. (1). In determining RE, data belonging to Group VI, where t-rsv provided the highest healing effect, Group IV, in which AFM1 was treated alone, and the control group were used.1 RE%=D1-D2/D3-D2×100 D1: data of AFM1 + t-rsv treated group, D2: Data of AFM1 treated group, D3: data of control.

[5] = type: in vivo, Mus musculus; remark: listed apart in the source
Method: In order to interpret the changes in body weight and organ weights, the weekly feed consumption of the mice was measured. Albino mice can consume approximately 3–4 g of feed in a day[15]. In line with this information, 30 g of feed per day were put into the cages, with 5 g for each mouse in each group. Feed consumption was calculated by measuring the amount of feed remaining in the container at the end of the 7th day of each week during the 28-day application period.

[6] = system: buccal mucosa epithelial cells; experiment: MN test in buccal mucosa epithelial cells; type: in vivo, Mus musculus; conditions: 20 mg/kg t-rsv against 16 mg/kg AFM1
Method: as §1
For the MN test in the buccal mucosa epithelial cells, the mouths of the mice stunned with halothane anesthesia were rinsed with distilled water, and epithelial cells were taken from the left and right buccal mucosa and spread on the slide. Preparations fixed in methanol: acetic acid solution were stained with Fast Green and Feulgen then examined with a research microscope. For the MN test in erythrocytes, blood samples (5 µL) from the tail veins of mice stunned with halothane anesthesia were mixed with EDTA (3%) solution and spread on sterile slides. The preparations were fixed in ethanol (70%) for 2 min. were left to dry at 21 °C for 24 h. Slides were stained with Giemsa (5%) for 15 min. and analyzed under a microscope. For the leukocyte MN test, blood samples were obtained from each mouse and centrifuged at 5000 rpm for 10 min. 5 mL of 0.075 M KCl solution was transferred to the pellet. […]

albino mice = conditions: 10 mg/kg and 20 mg/kg doses
[7] = in vivo; cited from earlier work
[8] = rabbit, in vivo; cited from earlier work
[9] = Group II: 10 mg/kg b.w. t-rsv, 28 days
[10] = Group III: 20 mg/kg b.w. t-rsv, 28 days
[11] = Group II: 10 mg/kg b.w. t-rsv, 600 cells analyzed
[12] = Group III: 20 mg/kg b.w. t-rsv, 600 cells analyzed

COc1cc2c(c3oc(=O)c4c(c13)CCC4=O)C1(O)C=COC1O2 (centres unmarked) [AFM1, Aflatoxin M1]
average DNA damage score (leukocyte cell nuclei; mouse, in vivo, iv, 16 mg/kg): 255.67 ± 16.57
decrease of kidney GSH level compared to the control group (liver and kidney tissues; mouse, in vivo): 39.3%
decrease of liver GSH level compared to the control group (liver and kidney tissues; mouse, in vivo): 63.7%
increase of kidney MDA level compared to the control group (liver and kidney tissues; mouse, in vivo): 1.41 times
increase of liver MDA level compared to the control group (liver and kidney tissues; mouse, in vivo): 1.22 times
decrease in kidney weight compared to the control group ([1]; mouse, in vivo): 51.3%
decrease in liver weight compared to the control group ([1]; mouse, in vivo): 43.1%
Organ weight, kidney ([1]; mouse, in vivo, iv, 16 mg/kg): 0.74 ± 0.15^d
Organ weight, liver ([1]; mouse, in vivo, iv, 16 mg/kg): 1.50 ± 0.24^d
decrease in body weight compared to the control group (mouse, in vivo): 17.5%
FBW: Final body weight (mouse, in vivo, iv, 16 mg/kg): 41.38 ± 1.98 g
TWG: Total weight gain (mouse, in vivo, iv, 16 mg/kg): 3.5 g and 3.50^d g
increase in ALT level compared to the control group ([2]; mouse, in vivo, iv, 16 mg/kg): 35.8%
increase in AST level compared to the control group ([2]; mouse, in vivo, iv, 16 mg/kg): 33.6%
increase in BUN level compared to the control group ([2]; mouse, in vivo, iv, 16 mg/kg): 43.6%
increase in creatinine level compared to the control group ([2]; mouse, in vivo, iv, 16 mg/kg): 58.4%
CAs frequency, Acentric (bone marrow cells [3]; mouse, in vivo, iv, 16 mg/kg): 12.70 ± 0.94^a
CAs frequency, Break (bone marrow cells [3]; mouse, in vivo, iv, 16 mg/kg): 60.20 ± 4.38^a
CAs frequency, Dicentric (bone marrow cells [3]; mouse, in vivo, iv, 16 mg/kg): 8.20 ± 0.84^a
CAs frequency, Fragment (bone marrow cells [3]; mouse, in vivo, iv, 16 mg/kg): 31.80 ± 3.12^a
CAs frequency, Gap (bone marrow cells [3]; mouse, in vivo, iv, 16 mg/kg): 20.80 ± 2.65^a
CAs frequency, Ring (bone marrow cells [3]; mouse, in vivo, iv, 16 mg/kg): 48.40 ± 4.15^a
decrease in MI rate compared to the control group (bone marrow cells [4]; mouse, in vivo): 32.5%
Feed consumption, 7th day ([5]; mouse, in vivo, iv, 16 mg/kg): 148.6
Feed consumption, 14th day ([5]; mouse, in vivo, iv, 16 mg/kg): 147.1
Feed consumption, 21st day ([5]; mouse, in vivo, iv, 16 mg/kg): 131.1
Feed consumption, 28th day ([5]; mouse, in vivo, iv, 16 mg/kg): 119.8

Oc1ccc(/C=C/c2cc(O)cc(O)c2)cc1 [t-rsv, trans-resveratrol]
DNA damage by t-rsv application alone (leukocyte cell nuclei; Group II and III vs control, p > 0.05): did not induce DNA damage
RE, MN Buccosal [6]: 48.9%
decrease in MDA level (liver and kidney tissues; t-rsv with AFM1, liver and kidney, dose not stated): 16%
Organ weight, kidney [1, 9]: 1.55 ± 0.30^a
Organ weight, liver [1, 9]: 2.62 ± 0.34^a
Organ weight, kidney [1, 10]: 1.53 ± 0.26^a
Organ weight, liver [1, 10]: 2.65 ± 0.42^a
FBW: Final body weight [9]: 49.91 ± 2.10 g
TWG: Total weight gain [9]: 11.96^a g
FBW: Final body weight [10]: 50.66 ± 2.18 g
TWG: Total weight gain [10]: 12.40^a g
protection against abnormalities in serum parameters ([2]; 20 mg/kg t-rsv against AFM1): 45.69–60.3%
toxic effect of resveratrol alone (albino mice): did not have a toxic effect
reduction in CA types (bone marrow cells [3]; 10 mg/kg and 20 mg/kg t-rsv treatment with AFM1): 22.6–63.9%
reduction of gap formation (bone marrow cells [3]; 20 mg/kg t-rsv with AFM1): 63.9%
CAs frequency, Acentric (bone marrow cells [3]; [11]): 0.00 ± 0.00^d
CAs frequency, Break (bone marrow cells [3]; [11]): 0.00 ± 0.00^d
CAs frequency, Dicentric (bone marrow cells [3]; [11]): 0.00 ± 0.00^d
CAs frequency, Fragment (bone marrow cells [3]; [11]): 0.00 ± 0.00^d
CAs frequency, Gap (bone marrow cells [3]; [11]): 0.00 ± 0.00^d
CAs frequency, Acentric (bone marrow cells [3]; [12]): 0.00 ± 0.00^d
CAs frequency, Break (bone marrow cells [3]; [12]): 0.00 ± 0.00^d
CAs frequency, Dicentric (bone marrow cells [3]; [12]): 0.00 ± 0.00^d
CAs frequency, Fragment (bone marrow cells [3]; [12]): 0.00 ± 0.00^d
CAs frequency, Gap (bone marrow cells [3]; [12]): 0.00 ± 0.00^d
RE, MI Rate (bone marrow cells [4]; 20 mg/kg t-rsv against 16 mg/kg AFM1): 80.7%
MI levels (bone marrow cells [4]; control group, 10 mg/kg, 20 mg/kg t-rsv-treated groups): 13.9–14.3%
Feed consumption, 7th day ([5]; Group II: 10 mg/kg b.w. t-rsv): 151.9
Feed consumption, 14th day ([5]; Group II: 10 mg/kg b.w. t-rsv): 152.7
Feed consumption, 21st day ([5]; Group II: 10 mg/kg b.w. t-rsv): 155.7
Feed consumption, 28th day ([5]; Group II: 10 mg/kg b.w. t-rsv): 153.2
Feed consumption, 7th day ([5]; Group III: 20 mg/kg b.w. t-rsv): 157.6
Feed consumption, 14th day ([5]; Group III: 20 mg/kg b.w. t-rsv): 153.2
Feed consumption, 21st day ([5]; Group III: 20 mg/kg b.w. t-rsv): 155.6
Feed consumption, 28th day ([5]; Group III: 20 mg/kg b.w. t-rsv): 151.9

Aflatoxin B1 [AFB1]
reduction of weight gain compared to control [7]: 33.94%
body weight loss compared to the control group [8]: approximately 539 g

Aflatoxin G2 [AFG2]
body weight loss compared to the control group [8]: approximately 539 g
